These results are taken from patent US20240238423A9, “TETRAHYDROISOQUINOLINE HETEROBIFUNCTIONAL BCL-XL DEGRADERS” (Treeline Biosciences, Inc., priority 2022, published 2024).

SMILES strings stand for the structures. Where two headings read alike, the source gives them in different places.

The target in this experiment is T1, Human BCL-XL protein (N-terminal HiBiT tagged BCL-XL in HT1080 cells) (Homo sapiens, UniProt Q07817).
T1 construct: expressed in transfected cells; host or cells: HT-1080 (ATCC CCL-121), stably transduced with lentivirus pLV-UBC-N-HiBiT-BCL-XL-PGK-puro and selected with puromycin
T1 sequence (Q07817 whole entry): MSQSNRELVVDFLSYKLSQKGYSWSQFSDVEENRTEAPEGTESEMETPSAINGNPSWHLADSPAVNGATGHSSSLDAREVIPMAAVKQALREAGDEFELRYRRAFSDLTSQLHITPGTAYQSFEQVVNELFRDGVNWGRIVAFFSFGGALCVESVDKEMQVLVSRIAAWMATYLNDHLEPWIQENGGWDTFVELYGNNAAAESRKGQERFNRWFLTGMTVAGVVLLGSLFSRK
Briefly: HiBiT based degradation assay. Type of experiment: cell-based. Conditions: HT1080 cells expressing HiBiT-BCL-XL; for Ymin (24 h) / Ymin (6 h): BCL-XL degradation normalized with DMSO control; for DC50: BCL-XL degradation. Summed up: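 HT1080 cells stably transduced by lentivirus with N-terminally HiBiT-tagged human BCL-XL and kept under 1 μg/mL puromycin selection were seeded at three thousand cells per well in 40 μL RPMI 1640 into 384-well plates pre-spotted with compounds across a concentration range. Luminescence was read on a PHERAstar FSX, normalized to DMSO, and fitted with a four-parameter logistic model.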

In the case of `Cc1c(OCCCC[C@@H]2CCCN(CC(=O)Nc3cccc4c(C5CCC(=O)NC5=O)nn(C)c34)C2)cccc1-c1ccc(N2CCc3cccc(C(=O)Nc4nc5ccccc5s4)c3C2)nc1C(=O)O` (stereo partly drawn) [Compound 186a, 6-[8-(1,3-benzothiazol-2-ylcarbamoyl)-3,4-dihydro-1H-isoquinolin-2-yl]-3-[3-[4-[(3R)-1-[2-[[3-(2,6-dioxo-3-piperidyl)-1-methyl-indazol-7-yl]amino]-2-oxo-ethyl]-3-piperidyl]butoxy]-2-methyl-phenyl]pyridine-2-carboxylic acid], where the note is “24 h”, the “Ymin (24 h)” value was “B (50% ≤ Ymin < 70%)”. In addition, for the setting “24 h, read-out: EC50 (24 h)”, the DC50 was below 100 nM.

As for `Cc1c(OCCCC[C@H]2CCCN(CC(=O)Nc3cccc4c(C5CCC(=O)NC5=O)nn(C)c34)C2)cccc1-c1ccc(N2CCc3cccc(C(=O)Nc4nc5ccccc5s4)c3C2)nc1C(=O)O` (stereo partly drawn) [Compound 186b, 6-[8-(1,3-benzothiazol-2-ylcarbamoyl)-3,4-dihydro-1H-isoquinolin-2-yl]-3-[3-[4-[(3S)-1-[2-[[3-(2,6-dioxo-3-piperidyl)-1-methyl-indazol-7-yl]amino]-2-oxo-ethyl]-3-piperidyl]butoxy]-2-methyl-phenyl]pyridine-2-carboxylic acid], under “24 h”, the “Ymin (24 h)” value is on record as “C (Ymin ≥ 70%)”. The DC50 (24 h, read-out: EC50 (24 h)) was 1000 to 10000 nM.

`Cc1c(OCCCN2CCN(CC(=O)Nc3ccc4c(C5CCC(=O)NC5=O)nn(C)c4c3)[C@H](C(F)(F)F)C2)cccc1-c1ccc(N2CCc3cccc(C(=O)Nc4nc5ccccc5s4)c3C2)nc1C(=O)O` (stereo partly drawn) [Compound 187a, 6-(8-(benzo[d]thiazol-2-ylcarbamoyl)-3,4-dihydroisoquinolin-2(1H)-yl)-3-(3-(3-((3S)-4-(2-((3-(2,6-dioxopiperidin-3-yl)-1-methyl-1H-indazol-6-yl)amino)-2-oxoethyl)-3-(trifluoromethyl)piperazin-1-yl)propoxy)-2-methylphenyl)picolinic acid]: the “Ymin (6 h)” value (6 h) is listed as “B (50% ≤ Ymin < 70%)”. Further, for the setting “24 h”, the “Ymin (24 h)” value is listed as “B (50% ≤ Ymin < 70%)”. Also, the DC50 reads like this: (6 h, read-out: EC50 (6 h)) 100 to 1000 nM; (24 h, read-out: EC50 (24 h)) below 100 nM.

Turning to `Cc1c(OCCCN2CCN(CC(=O)Nc3ccc4c(C5CCC(=O)NC5=O)nn(C)c4c3)[C@@H](C(F)(F)F)C2)cccc1-c1ccc(N2CCc3cccc(C(=O)Nc4nc5ccccc5s4)c3C2)nc1C(=O)O` (stereo partly drawn) [Compound 187b, 6-(8-(benzo[d]thiazol-2-ylcarbamoyl)-3,4-dihydroisoquinolin-2(1H)-yl)-3-(3-(3-((3R)-4-(2-((3-(2,6-dioxopiperidin-3-yl)-1-methyl-1H-indazol-6-yl)amino)-2-oxoethyl)-3-(trifluoromethyl)piperazin-1-yl)propoxy)-2-methylphenyl)picolinic acid], the “Ymin (6 h)” value (6 h) was “B (50% ≤ Ymin < 70%)”. Further, where the note is “24 h”, the “Ymin (24 h)” value is on record as “A (Ymin < 50%)”. Besides, the DC50 reads like this: (6 h, read-out: EC50 (6 h)) below 100 nM; (24 h, read-out: EC50 (24 h)) below 100 nM.

For the compound `Cc1c(OCC2CC3(CCN(CCN4CCN(c5cccc6c(C7CCC(=O)NC7=O)nn(C)c56)CC4)CC3)C2)cccc1-c1ccc(N2CCc3cccc(C(=O)Nc4nc5ccccc5s4)c3C2)nc1C(=O)O` (stereo not shown) [Compound 188, 6-[8-(1,3-benzothiazol-2-ylcarbamoyl)-3,4-dihydro-1H-isoquinolin-2-yl]-3-[3-[[7-[2-[4-[3-(2,6-dioxo-3-piperidyl)-1-methyl-indazol-7-yl]piperazin-1-yl]ethyl]-7-azaspiro[3.5]nonan-2-yl]methoxy]-2-methyl-phenyl]pyridine-2-carboxylic acid], the “Ymin (24 h)” value (24 h) is “A (Ymin < 50%)”. The DC50 (24 h, read-out: EC50 (24 h)) was below 100 nM.

In the case of `Cc1c(OCCCN2CCN(CC3CCN(c4ccc5c(C6CCC(=O)NC6=O)nn(C)c5c4)CC3)CC2)cccc1-c1ccc(N2CCc3cccc(C(=O)Nc4nc5ccccc5s4)c3C2)nc1C(=O)O` (stereo not shown) [Compound 189, 6-(8-(benzo[d]thiazol-2-ylcarbamoyl)-3,4-dihydroisoquinolin-2(1H)-yl)-3-(3-(3-(4-((1-(3-(2,6-dioxopiperidin-3-yl)-1-methyl-1H-indazol-6-yl)piperidin-4-yl)methyl)piperazin-1-yl)propoxy)-2-methylphenyl)picolinic acid], the “Ymin (24 h)” value (24 h) is reported as “A (Ymin < 50%)”. Also, the DC50 (24 h, read-out: EC50 (24 h)) is below 100 nM.

On to `Cc1c(Oc2ccc(CCCC(=O)N3CCN(c4cccc5c(C6CCC(=O)NC6=O)nn(C)c45)CC3)cc2)cccc1-c1ccc(N2CCc3cccc(C(=O)Nc4nc5ccccc5s4)c3C2)nc1C(=O)O` (stereo not shown) [Compound 191, 6-(8-(benzo[d]thiazol-2-ylcarbamoyl)-3,4-dihydroisoquinolin-2(1H)-yl)-3-(3-(4-(4-(4-(3-(2,6-dioxopiperidin-3-yl)-1-methyl-1H-indazol-7-yl)piperazin-1-yl)-4-oxobutyl)phenoxy)-2-methylphenyl)picolinic acid], for which the “Ymin (24 h)” value (24 h) is listed as “B (50% ≤ Ymin < 70%)”. Further, the DC50 (24 h, read-out: EC50 (24 h)) was below 100 nM.

Consider `Cc1c(OCCCC2CCN(CCC3CCN(c4ccc5c(C6CCC(=O)NC6=O)nn(C)c5c4)CC3)CC2)cccc1-c1ccc(N2CCc3cccc(C(=O)Nc4nc5ccccc5s4)c3C2)nc1C(=O)O` (stereo not shown) [Compound 192, 6-(8-(benzo[d]thiazol-2-ylcarbamoyl)-3,4-dihydroisoquinolin-2(1H)-yl)-3-(3-(3-(1-(2-(1-(3-(2,6-dioxopiperidin-3-yl)-1-methyl-1H-indazol-6-yl)piperidin-4-yl)ethyl)piperidin-4-yl)propoxy)-2-methylphenyl)picolinic acid], for which the “Ymin (24 h)” value (24 h) is “A (Ymin < 50%)”. Besides, the DC50 (24 h, read-out: EC50 (24 h)) is below 100 nM.

Turning to `Cc1c(OCCC[C@@H]2CCN(CC(=O)Nc3ccc4c(C5CCC(=O)NC5=O)nn(C)c4c3)CC2(F)F)cccc1-c1ccc(N2CCc3cccc(C(=O)Nc4nc5ccccc5s4)c3C2)nc1C(=O)O` (stereo partly drawn) [Compound 193a, 6-(8-(benzo[d]thiazol-2-ylcarbamoyl)-3,4-dihydroisoquinolin-2(1H)-yl)-3-(3-(3-((4R)-1-(2-((3-(2,6-dioxopiperidin-3-yl)-1-methyl-1H-indazol-6-yl)amino)-2-oxoethyl)-3,3-difluoropiperidin-4-yl)propoxy)-2-methylphenyl)picolinic acid], the “Ymin (24 h)” value (24 h) is “B (50% ≤ Ymin < 70%)”. The DC50 (24 h, read-out: EC50 (24 h)) is 100 to 1000 nM.

With `Cc1c(OCCC[C@H]2CCN(CC(=O)Nc3ccc4c(C5CCC(=O)NC5=O)nn(C)c4c3)CC2(F)F)cccc1-c1ccc(N2CCc3cccc(C(=O)Nc4nc5ccccc5s4)c3C2)nc1C(=O)O` (stereo partly shown) [Compound 193b], the “Ymin (24 h)” value (24 h) was “B (50% ≤ Ymin < 70%)”. For the same compound, the DC50 (24 h, read-out: EC50 (24 h)) lay in the range of 100 to 1000 nM.

Regarding `Cc1c(OCCOC2CCN(CC(=O)Nc3cccc4c(C5CCC(=O)NC5=O)nn(C)c34)CC2)cccc1-c1ccc(N2CCc3cccc(C(=O)Nc4nc5ccccc5s4)c3C2)nc1C(=O)O` (stereo not shown) [Compound 194, 6-[8-(1,3-benzothiazol-2-ylcarbamoyl)-3,4-dihydro-1H-isoquinolin-2-yl]-3-[3-[2-[[1-[2-[[3-(2,6-dioxo-3-piperidyl)-1-methyl-indazol-7-yl]amino]-2-oxo-ethyl]-4-piperidyl]oxy]ethoxy]-2-methyl-phenyl]pyridine-2-carboxylic acid], the “Ymin (6 h)” value (6 h) is “B (50% ≤ Ymin < 70%)”. For the same compound, where the note is “24 h”, the “Ymin (24 h)” value is on record as “B (50% ≤ Ymin < 70%)”. In addition, the DC50 by setting is: (6 h, read-out: EC50 (6 h)) 100 to 1000 nM; (24 h, read-out: EC50 (24 h)) 100 to 1000 nM.
